Laboratory results taken from US20110184178A1, “POLYMORPHS OF 5-(3-(ETHYLSULFONYL)PHENYL)-3,8-DIMETHYL-N-(1-METHYLPIPERIDIN-4-YL)-9H-PYRIDO[2,3-B]INDOLE-7-CARBOXAMIDE AND METHODS OF USE THEREFOR” (Takeda Pharmaceutical Company Limited, priority 2008, published 2011).
Like-named read-outs stand apart in the source and are kept apart here.

How the values were obtained:
Assay type in all cases: physicochemical
[1] = Solubility study of Form A in de-ionized water and 20 mM phosphate buffer at pH 3.2 (HPLC, XRPD of solids); details: for solubility at 1 week: ambient temperature, read-out: Solubility mg/mL (1 week); for solubility at 1 day: read-out: Solubility mg/mL (1 day)
Protocol: Solubility was determined for Form A of Compound I by suspending the material in de-ionized water and 20 mM phosphate buffer at pH 3.2 and ambient temperature. Approximately 40 mg of Form A of Compound I was charged to 2-dram amber vials equipped with magnetic stir bars, followed by the addition of DI water or phosphate buffer (2.0 mL) in one portion. The samples were allowed to equilibrate with stirring for 16 h, followed by centrifugation. An aliquot of the supernatant liquid was analyzed by HPLC, and the solids isolated by filtration and dried under vacuum at ambient temperature for analysis by XRPD. Samples were allowed to stir for an additional 6 days and concentration determined by HPLC.

[2] = Moisture-sorption analysis (gravimetric adsorption/desorption, 25° C.)
Protocol: Further, the material gained enough water to form the dihydrate in approximately 45 minutes at 30% RH during adsorption and lost enough water to form the anhydrate at 15% RH during desorption in less than 60 minutes. […] The sample was further allowed to equilibrate at ambient laboratory conditions overnight and reanalyzed by XRPD. […] The moisture sorption experiment of Form C of Compound I provides a curve similar to the Form A curve (FIG. 11). […] Further, the material gained enough water to form the dihydrate in less than 60 minutes at 30% RH during adsorption and lost enough water to form the anhydrate at 15% RH during desorption in approximately 80 minutes. […] Moisture-sorption experiments were carried out on all samples by first drying the sample at 0% RH and 25° C. until an equilibrium weight was reached or for a maximum of four hours. The sample was then subjected to an isothermal (25° C.) adsorption scan from 10 to 90% RH in steps of 10%. Samples were then allowed to equilibrate to an asymptotic weight at each point for a maximum of four hours. Following adsorption, a desorption scan from 85 to 0% RH (at 25° C.) was run in steps of −10% again allowing a maximum of four hours for equilibration to an asymptotic weight. Samples were dried for one hour at 80° C. and the resulting solids analyzed by XRPD.

[3] = Humidity chamber study of Form A (XRPD, Karl Fischer); details: ambient temperature and 0% RH for one week
Description: A sample of Form A was exposed to ambient temperature and 0% RH for one week.

[4] = Slurry experiments (form by XRPD after slurrying in a solvent); details: Form A in dioxane slurry
Protocol: 50 to 60 mg of Form A of Compound I was weighed out into 2 dram amber vials and the material was slurried in 2 mL of a solvent. The slurry experiments were carried out at either ambient temperature or at 40° C. Samples were obtained from slurries after one day, one week, and two weeks. Tables 15 and 16 detail the results of the slurry experiments.

[5] = DSC heat-cool experiments with isothermal holds to isolate high-melt forms
Protocol: Differential scanning calorimetry (DSC) analyses were carried out on samples weighed in an aluminum pan, covered with a pierced lid, and then crimped. Analysis conditions were 30° C. to 300-350° C. ramped at 10° C./min. Samples were subjected to heat-cool-heat experiments to determine if a unique form or interconversion could be observed. Compound I was prepared by thoroughly mixing Form A lots with stirring by spatula and tumbling the powders for several minutes in a scintillation vial. Experiments were setup as described in Tables 17 and 18 with isothermal holds for five minutes at temperatures slightly below/above the observed transitions to encourage conversion/ripening. Similarly, controlled cooling profiles (−5° C./min) were used to help promote crystal growth as opposed to quench cooling which may result in amorphous or kinetically favored forms instead of the stable form.

[6] = Physical characterization of the polymorphs and salt (XRPD, DSC, TGA, 1H-NMR, KF, moisture sorption): stability assessment; details: solid form
Protocol: Described herein are Form A, Form B, Form C, Form D, Form E, Form F and Form G of Compound I. Various tests were performed in order to physically characterize the polymorphs of Compound I, including X-ray powder diffraction (XRPD), differential scanning calorimetry (DSC), thermogravimetric analysis (TGA), solution proton nuclear magnetic resonance (^1H-NMR), and moisture sorption and desorption analysis (M S/Des). Detailed experimental conditions for each of the analytical techniques are described in the Examples section. […] A summary of these experiments and the results are presented below and in Table 12.

[7] = solids isolated from DI water suspension
[8] = solids isolated from phosphate buffer suspension, pH 3.2
[9] = 30-280° C. @ 10° C./min, hold 280° C. for 5 min, 280-30° C. @ -5° C./min
[10] = 30-290° C. @ 10° C./min, hold 290° C. for 5 min, 290-30° C. @ -5° C./min

pH, 1 week ([1]; DI water suspension, pH (initial) 6.9): 7.2
pH, 1 week ([1]; Phosphate buffer suspension, pH (initial) 3.2): 3.4
solubility at 1 week ([1]; aqueous buffer, thermodynamic from solid, Phosphate buffer (20 mM), pH (initial) 3.2, pH 3.4 at 1 week): < 0.1 mg/mL
solubility at 1 day ([1]; de-ionized water, pH 6.9, thermodynamic from solid, DI water, pH (initial) 6.9, ambient temperature): < 0.1 mg/mL
solubility at 1 week ([1]; de-ionized water, thermodynamic from solid, DI water, pH (initial) 6.9, pH 7.2 at 1 week): < 0.1 mg/mL
solubility at 1 day ([1]; pH 3.2, aqueous buffer, thermodynamic from solid, Phosphate buffer (20 mM), pH (initial) 3.2, ambient temperature): < 0.1 mg/mL
XRPD (1 week) [1, 7]: Form A
XRPD (1 day) [1, 7]: Form A
XRPD (1 week) [1, 8]: Form A
XRPD (1 day) [1, 8]: Form A
XRPD analysis of the solid following the desorption scan [2]: consistent with Form C
time to lose enough water to form the anhydrate ([2]; at 15% RH during desorption): less than 60 minutes
time to gain enough water to form the dihydrate ([2]; at 30% RH during adsorption): approximately 45 minutes
hydration state in the moisture sorption experiment ([2]; during both adsorption and desorption, 25° C.): stable dihydrate above 20% RH
XRPD after equilibration at ambient laboratory conditions overnight ([2]; sample after desorption scan): re-converted to Form A
Karl Fischer (KF) analysis results before and after the one week equilibration [3]: comparable
XRPD after one week in humidity chamber [3]: consistent with Form A
XRPD pattern of dioxane slurry [4]: mixture of Form A and Form D
1H NMR (degradation) [5, 9]: No degradation
XRPD [5, 9]: Form F
1H NMR (degradation) [5, 10]: No degradation
XRPD [5, 10]: Form G
stability (based on the available characterization data) [6]: stable at ambient conditions
SMILES: CCS(=O)(=O)c1cccc(-c2cc(C(=O)NC3CCN(C)CC3)c(C)c3[nH]c4ncc(C)cc4c23)c1 [Compound I Form A, 5-(3-(ethylsulfonyl)phenyl)-3,8-dimethyl-N-(1-methylpiperidin-4-yl)-9H-pyrido[2,3-b]indole-7-carboxamide]
